For this assay, the system named is HSSY-II tumor spheroid viability. As to the kind of experiment: Anticancer human tumor HSSY-II cell line growth inhibition.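 On all read-outs here: spheroids exposed to compounds for seven days before reading.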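 On viability, T/C: percent of DMSO vehicle control viability so 100% = untreated level.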 Conditions: spheroids with HUVEC and MSC; for viability, T/C: stronger effect = lower value. In outline:
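Single agents and combinations were tested on spheroids built from tumor cells plus HUVEC and hMSC, at half-log dilutions starting at or near clinical Cmax, else 10 microM; final DMSO 0.25% (v/v).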

“And” between values parts separate entries of the source, which are not always exact repeats. Equal values may be shown once. Some results are limits rather than exact numbers.

As a reminder, the IC50 is the concentration that gives 50% inhibition. For orientation: viability, T/C means the ratio of treated to control. For the compound `CNCc1ccc(-c2cc(-c3nc(-c4ccc(S(=O)(=O)C(C)C)cc4)cnc3N)on2)cc1` + COc1cc2c(cc1O)CCNC21CSC2c3c(OC(C)=O)c(C)c4c(c3C(COC1=O)N1C(O)C3Cc5cc(C)c(OC)c(O)c5C(C21)N3C)OCO4, the IC50 is 31.5 nM (curve of first compound, second compound 30 pM); 11.5 nM (curve of first compound, second compound 94.9 pM); less than 9.49 nM (curve of first compound, second compound 0.0003 µM); less than 9.49 nM (curve of first compound, second compound 0.000949 µM); less than 9.49 nM (curve of first compound, second compound 0.003 µM). The viability, T/C (second compound 30 pM, first compound 0.00949 µM) was 93.8%; the viability, T/C (second compound 30 pM, first compound 0.03 µM) was 51.9%; the viability, T/C (second compound 30 pM, first compound 0.0949 µM) is 7.62%; the viability, T/C (second compound 30 pM, first compound 0.3 µM) is 4.24%; the viability, T/C (second compound 30 pM, first compound 0.949 µM) is 1.27%; the viability, T/C (second compound 30 pM, first compound 3 µM) is 0.11%. Moreover, the viability, T/C (second compound 94.9 pM, first compound 0.00949 µM) was 57%; the viability, T/C (second compound 94.9 pM, first compound 0.03 µM) was 15.9%; the viability, T/C (second compound 94.9 pM, first compound 0.0949 µM) was 4.64%; the viability, T/C (second compound 94.9 pM, first compound 0.3 µM) was 4.08%; the viability, T/C (second compound 94.9 pM, first compound 0.949 µM) is 1.02%; the viability, T/C (second compound 94.9 pM, first compound 3 µM) is 0.1%. The viability, T/C by setting is: (second compound 0.0003 µM, first compound 0.00949 µM) 10.1%; (second compound 0.0003 µM, first compound 0.03 µM) 5.43%; (second compound 0.0003 µM, first compound 0.0949 µM) 3.66%; (second compound 0.0003 µM, first compound 0.3 µM) 3.41%; (second compound 0.0003 µM, first compound 0.949 µM) 0.72%; (second compound 0.0003 µM, first compound 3 µM) 0.12%. Besides, the viability, T/C is, setting by setting: (second compound 0.000949 µM, first compound 0.00949 µM) 2.93%; (second compound 0.000949 µM, first compound 0.03 µM) 2.47%; (second compound 0.000949 µM, first compound 0.0949 µM) 2.03%; (second compound 0.000949 µM, first compound 0.3 µM) 1.1%; (second compound 0.000949 µM, first compound 0.949 µM) 0.09%; (second compound 0.000949 µM, first compound 3 µM) 0.15%. In addition, the viability, T/C (second compound 0.003 µM, first compound 0.00949 µM) was 0.22%; the viability, T/C (second compound 0.003 µM, first compound 0.03 µM) is 0.27%; the viability, T/C (second compound 0.003 µM, first compound 0.0949 µM) is 0.21%; the viability, T/C (second compound 0.003 µM, first compound 0.3 µM) is 0.2%; the viability, T/C (second compound 0.003 µM, first compound 0.949 µM) was 0.18%; the viability, T/C (second compound 0.003 µM, first compound 3 µM) is 0.25%.
Turning to `Cn1ncnc1[C@H]1c2n[nH]c(=O)c3cc(F)cc(c23)N[C@@H]1c1ccc(F)cc1`, the viability, T/C reads like this: (compound 0.00949 µM) 76.5% and 87.8% and 78.8%; (compound 0.03 µM) 64.8% and 81.5% and 64.3%; (compound 0.0949 µM) 40.7% and 58.8% and 46.4%; (compound 0.3 µM) 15.3% and 25.6% and 20.6%; (compound 0.949 µM) 6.4% and 9.46% and 9.61%; (compound 3 µM) 4.87% and 8.07% and 6.62%. Also, the IC50 (curve of compound) was 60.5 nM and 129 nM and 70.4 nM.
Turning to `CNCc1ccc(-c2cc(-c3nc(-c4ccc(S(=O)(=O)C(C)C)cc4)cnc3N)on2)cc1`, the viability, T/C is 97.3% and 98% and 97.5% (compound 0.00949 µM); 74.1% and 79.3% and 68.2% (compound 0.03 µM); 8.25% and 5.12% and 7.65% (compound 0.0949 µM); 4.73% and 4.15% and 5.89% (compound 0.3 µM); 1.97% and 2.75% and 1.7% (compound 0.949 µM); 0.23% (2×) and 0.46% (compound 3 µM). For the setting “curve of compound”, the IC50 was 45.8 nM and 47.3 nM and 42.4 nM.
For `Cn1nnc2c(C(N)=O)ncn2c1=O`, the viability, T/C was 100% [middle of 10 runs] (compound 1 µM); 104% [middle of 10 runs] (compound 3.16 µM); 102% [middle of 10 runs] (compound 10 µM); 103% [middle of 10 runs] (compound 31.6 µM); 93.4% [middle of 10 runs] (compound 100 µM). The IC50 (compound alone, run of 12/02/2019) is greater than 100000 nM.
Turning to `COc1cc2c(cc1O)CCNC21CSC2c3c(OC(C)=O)c(C)c4c(c3C(COC1=O)N1C(O)C3Cc5cc(C)c(OC)c(O)c5C(C21)N3C)OCO4` (centres undefined), the viability, T/C by setting is: (compound 0.0003 µM) 16.7% [middle of 10 runs]; (compound 0.000949 µM) 3.25% [middle of 9 runs]; (compound 0.003 µM) 0.2% [middle of 7 runs]. Further, the IC50 (compound alone, run of 12/12/2019) is 0.187 nM [middle of 10 runs].

Values taken from PubChem BioAssay AID1845204 (Molecular Pharmacology Branch, DTP, NCI, 2023).
